According to US20230172914A1, “BIOMARKER-BASED THERAPEUTIC COMPOSITION” (WELLMARKER BIO CO., LTD., priority 2019, published 2023):
pIC50: −log10 of the molar value. Counter-ions that a name gives are not always drawn.

Assays:
KM12C (RONΔ160) [1] = assay: Cell death-inducing ability, trypan blue exclusion, KM12C; assay type: cell-based, human; settings: 48 hours
Protocol: (§1) The cell death-inducing ability of Example 18 and Comparative Example 1 was measured in KM12C with RON mutant (Δ160), a cetuximab-resistant cell line, and Colo320HSR cell line, a cell line not expressing RON. The two colon cancer cell lines were seeded, respectively, onto 60-mm plates at 2×10^5 cells. Then, after 24 hours, while performing medium exchange, the cells were subjected to treatment with the sample compounds at respective concentrations (1 μM, 5 μM) for 48 hours. After 48 hours, the cells and cell suspensions were collected (1,500 rpm, 3 minutes), and live cells and dead cells were quantitated (n=2) through trypan blue (15250-061, Gibco) exclusion assay.

Colo320HSR (RON-) = assay: Cell death-inducing ability, trypan blue exclusion, Colo320HSR; assay type: cell-based; settings: 48 hours
Protocol: as §1

[2] = tested on: colon cancer patient tissue (active RON/RON mutant #1: Δ160); assay: Efficacy in animal model transplanted with colon cancer patient tissue, 30 mpk; assay type: in vivo; settings: 30 mpk for 4 weeks
Protocol: Example 18 and Comparative Example 1 were administered to an animal model transplanted with the same patient tissue (active RON/RON mutant #1: Δ160) cells as in the animal model transplanted with colon cancer patient tissue tumor cells at 30 mpk for 4 weeks. […] The lower pictures of FIG. 21 show tumors extracted from representative individuals of the respective groups.

KM12C (RONΔ160) [3] = assay: MTS assay KM12C (Experimental Example 6); assay type: cell-based; settings: Homo sapiens, 72 hours
Protocol: In MTS assay for Example 18 and Comparative Example 1, KM12C cell line was seeded at 1,000 cells per well into 96-well plates. After 24 hours, the cells were treated with various concentrations (0.000001 uM to 10 uM) of Example 18 and Comparative Example 1 in 100 ul of 10% FBS-MEM medium (Welgene) per well. Subsequently, the cells were incubated for 72 hours. Then, 20 μl of MTS solution (Promega) was added thereto, and incubation was performed for 2 hours. Then, the absorbance was measured at 490 nm. The IC50 values for Example 18 and Comparative Example 1 were calculated using GraphPad Prism™ 5 to investigate cytotoxicity.

KM12C cell line tumor = assay: Efficacy in animal model transplanted with KM12C, 30 and 50 mpk (Experimental Example 11); assay type: in vivo, BALB/c nude mice; settings: once a day for 2 weeks
Protocol: 5-Week-old female BALB/c nude mice were purchased and acclimatized for 1 week. Then, human-derived colon cancer cell line KM12C (1.5×10^6 cells/mice) was diluted in PBS, and injected subcutaneously (100 μl) into the right dorsal side of the mice. Comparative Examples 1 and Example 18 were orally administered when the tumor reached a size of about 100 mm^3. The drug was administered at 30 mpk and 50 mpk once a day for 2 weeks, and tumor size and body weight were measured twice a week. […] After completion of the drug administration, the experimental animals were euthanized, and then the tumors were extracted and weighed to perform comparative analysis.

RON enzyme = RON enzyme (Homo sapiens, UniProt Q04912); assay: RON activity inhibition assay (ADP-Glo); assay type: biochemical; settings: 50 uM ATP, G4Y1 peptide substrate
Chain of RON enzyme (Q04912 25-1400): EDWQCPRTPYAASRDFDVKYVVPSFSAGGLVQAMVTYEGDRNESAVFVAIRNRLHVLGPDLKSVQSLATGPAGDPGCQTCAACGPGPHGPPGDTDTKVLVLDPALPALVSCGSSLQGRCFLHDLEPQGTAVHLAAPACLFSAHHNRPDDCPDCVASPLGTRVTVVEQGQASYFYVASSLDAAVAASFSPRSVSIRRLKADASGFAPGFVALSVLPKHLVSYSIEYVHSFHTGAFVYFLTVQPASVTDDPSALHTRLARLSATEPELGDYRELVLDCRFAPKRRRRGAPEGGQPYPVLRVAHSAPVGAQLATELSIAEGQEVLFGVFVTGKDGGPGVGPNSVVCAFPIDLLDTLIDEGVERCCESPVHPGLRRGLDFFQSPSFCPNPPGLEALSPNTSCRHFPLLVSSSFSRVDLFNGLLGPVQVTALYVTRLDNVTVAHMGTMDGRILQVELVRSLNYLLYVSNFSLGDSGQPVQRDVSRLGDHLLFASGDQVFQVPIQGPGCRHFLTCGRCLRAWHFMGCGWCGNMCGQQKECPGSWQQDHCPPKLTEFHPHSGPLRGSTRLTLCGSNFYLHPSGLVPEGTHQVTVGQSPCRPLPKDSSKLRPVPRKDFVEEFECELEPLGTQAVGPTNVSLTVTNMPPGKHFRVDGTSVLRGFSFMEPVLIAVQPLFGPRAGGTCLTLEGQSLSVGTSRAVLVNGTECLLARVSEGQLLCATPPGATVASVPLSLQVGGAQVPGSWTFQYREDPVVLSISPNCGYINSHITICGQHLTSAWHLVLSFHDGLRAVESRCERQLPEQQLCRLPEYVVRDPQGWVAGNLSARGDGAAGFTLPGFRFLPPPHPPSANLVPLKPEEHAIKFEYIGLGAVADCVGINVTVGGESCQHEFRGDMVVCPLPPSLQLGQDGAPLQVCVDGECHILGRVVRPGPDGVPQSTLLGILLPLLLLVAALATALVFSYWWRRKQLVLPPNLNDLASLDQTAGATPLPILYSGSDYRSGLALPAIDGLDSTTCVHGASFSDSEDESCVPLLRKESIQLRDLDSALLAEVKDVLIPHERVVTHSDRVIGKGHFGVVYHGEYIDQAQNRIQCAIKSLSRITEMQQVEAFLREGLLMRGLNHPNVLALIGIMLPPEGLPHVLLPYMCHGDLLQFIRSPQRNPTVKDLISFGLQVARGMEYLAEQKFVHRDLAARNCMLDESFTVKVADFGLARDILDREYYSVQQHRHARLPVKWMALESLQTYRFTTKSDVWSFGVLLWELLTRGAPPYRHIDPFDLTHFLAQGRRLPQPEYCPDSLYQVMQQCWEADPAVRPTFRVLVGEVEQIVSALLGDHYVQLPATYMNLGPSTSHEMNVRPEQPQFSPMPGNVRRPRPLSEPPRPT
Protocol: Enzymatic reaction was allowed to proceed using 2 ng/uL of 250 uM G4Y1 peptide, which serves as a substrate for RON enzyme, and 50 uM ATP in assay buffer (40 mM Tris-HCl, pH 7.5, 20 mM MgCl2, 0.1 mg/mL bovine serum albumin, 50 uM DTT). The resultant was subjected to treatment with the compounds prepared in the examples and the comparative examples at various concentrations, and reaction was allowed to proceed at room temperature for 1 hour. Then, ADP-Glo™ Reagent and Kinase Detection Reagent were sequentially added thereto, and reaction was allowed to proceed at room temperature for 40 minutes and 30 minutes, respectively.
Subsequently, luminescence was measured using Wallaac Victor 2TM (PerkinElmer Life Sciences, 1420-042). Data were analyzed with the measured RLU values to verify activity of the RON inhibitors. The RLU value of a sample which was not treated with the compound was set as a 100% control, and the activity of the RON inhibitor was evaluated as a percentage of residual activity of the RON enzyme in the sample that was treated with the compound at the concentration to be tested.

[4] = tested on: MKN45 cell line (cell line expressing active RON); assay: Cell growth inhibition MTS assay on MKN45; assay type: cell-based; settings: Homo sapiens, MKN-45, 48 hours, read-out: Growth inhibitory capacity on MKN45 cells, IC50
Protocol: MTS assay was performed to identify whether the compound according to the present invention has a cancer cell proliferation inhibitory effect through inhibition of extracellular signal-regulated kinase activity.
The following assay was performed on MKN45 cell line (cell line expressing active RON), a human gastric cancer cell line. The MKN45 cell line was dispensed at a concentration of 5,000 cells/well in a 96-well plate containing RPMI-1640 medium (Gibco, Invitrogen) containing 10% FBS, and then the plate was incubated for 24 hours at a condition of 5% CO2 and 37° C. Then, the respective wells were subjected to treatment with the compounds prepared in the examples, each of which was sequentially diluted from its high concentration of 10 μM. For a solvent control, the respective wells were subjected to treatment with dimethyl sulfoxide (DMSO) at the same concentrations (% (v/v)) to those used for the treatment with the compounds. Then, the respective cells were incubated for 48 hours.
In order to identify degree of viability of the cells, a mixture of MTS and phenazine methosulfate (PMS) provided in CellTiter 96 AQuous Non-Radioactive Cell Proliferation Assay Kit (Promega) was added to each cultured cell medium. Additional incubation was performed at a condition of 37° C. for 2 hours and 30 minutes. Then, absorbance was measured at 490 nm. […] In the following, A represents <10 nM, B represents 10 to 50 nM, and C represents >50 nM.

Compound	pIC50 [4]	also measured
CCOc1ccn(-c2ccc(F)cc2)c(=O)c1C(=O)Nc1ccc(Oc2ccnc(N)c2Cl)c(F)c1 [Comparative Example 1, N-{4-[(2-amino-3-chloro-4-pyridinyl)oxy]-3-fluorophenyl}-4-ethoxy-1-(4-fluorophenyl)-2-oxo-1,2-dihydro-3-pyridinecarboxamide, reference compound]	–	Cell death, KM12C (RONΔ160) (KM12C (RONΔ160) [1]; 1 μM): 11.7; Cell death, KM12C (RONΔ160) (KM12C (RONΔ160) [1]; 5 μM): 21.1; Cell death, Colo320HSR (RON-) (Colo320HSR (RON-); 1 μM): 5.9; Cell death, Colo320HSR (RON-) (Colo320HSR (RON-); 5 μM): 8.2; tumor growth inhibition efficacy [2]: about 18%; IC50 (KM12C (RONΔ160) [3]): 358 nM; TGI (%) (KM12C cell line tumor; 30 mg/kg oral): 82.4%; TGI (%) (KM12C cell line tumor; 50 mg/kg oral): 83.7%; tumor growth inhibition efficacy (KM12C cell line tumor; 30 mpk and 50 mpk oral): very high tumor growth inhibition efficacy
CCOc1ccn(C)c(=O)c1C(=O)Nc1ccc(Oc2ccnc3cc(-c4cn(C)cn4)sc23)c(F)c1 [Example 2, 4-ethoxy-N-(3-fluoro-4-(2-(1-methyl-1H-imidazol-4-yl)thieno[3,2-b]pyridine-7-yloxy)phenyl)-1-methyl-2-oxo-1,2-dihydropyridine-3-carboxamide]	< 7.30	–
CCOc1ccn(-c2ccc(F)cc2)c(=O)c1C(=O)Nc1ccc(Oc2ccnc3cc(-c4nccs4)sc23)c(F)c1 [Example 7, 4-ethoxy-N-(3-fluoro-4-(2-(thiazol-2-yl)thieno[3,2-b]pyridin-7-yloxy)phenyl)-1-(4-fluorophenyl)-2-oxo-1,2-dihydropyridine-3-carboxamide]	< 7.30	–
CCOc1ccn(Cc2ccc(F)cc2)c(=O)c1C(=O)Nc1ccc(Oc2ccnc3cc(-c4cn(CC)cn4)sc23)c(F)c1 [Example 8, 4-ethoxy-N-(4-(2-(1-ethyl-1H-imidazol-4-yl)thieno[3,2-b]pyridin-7-yloxy)-3-fluorophenyl)-1-(4-fluorobenzyl)-2-oxo-1,2-dihydropyridine-3-carboxamide]	< 7.30	–
CCOc1ccn(-c2ccc(F)cc2)c(=O)c1C(=O)Nc1ccc(Oc2ccnc3cc(CN4CCNCC4)sc23)c(F)c1 [Example 10, 4-ethoxy-N-(3-fluoro-4-(2-(piperazin-1-ylmethyl)thieno[3,2-b]pyridin-7-yloxy)phenyl)-1-(4-fluorophenyl)-2-oxo-1,2-dihydropyridine-3-carboxamide hydrochloride]	< 7.30	–
CCOc1ccn(-c2ccc(F)cc2)c(=O)c1C(=O)Nc1ccc(Oc2ccnc3cc(CN4CCN(C)CC4)sc23)c(F)c1 [Example 11, 4-ethoxy-N-(3-fluoro-4-(2-((4-methylpiperazin-1-yl)methyl)thieno[3,2-b]pyridine-7-yloxy)phenyl)-1-(4-fluorophenyl)-2-oxo-1,2-dihydropyridine-3-carboxamide]	< 7.30	–

Now from value to compound, other results behind:

pIC50 [4]	Compound	also measured
> 8.00	CCOc1ccn(-c2ccc(F)cc2)c(=O)c1C(=O)Nc1ccc(Oc2ccnc3cc(-c4cn(C)cn4)sc23)c(F)c1 [Example 1, 4-ethoxy-N-(3-fluoro-4-(2-(1-methyl-1H-imidazol-4-yl)thieno[3,2-b]pyridine-7-yloxy)phenyl)-1-(4-fluorophenyl)-2-oxo-1,2-dihydropyridine-3-carboxamide]	pIC50 (RON enzyme): 7.95
7.30 to 8.00	CCOc1ccn(-c2ccc(F)cc2)c(=O)c1C(=O)Nc1ccc(Oc2ccnc3cc(-c4nccn4C)sc23)c(F)c1 [Example 3, 4-ethoxy-N-(3-fluoro-4-(2-(1-methyl-1H-imidazol-2-yl)thieno[3,2-b]pyridine-7-yloxy)phenyl)-1-(4-fluorophenyl)-2-oxo-1,2-dihydropyridine-3-carboxamide]	–
7.30 to 8.00	CCOc1ccn(-c2ccc(F)cc2)c(=O)c1C(=O)Nc1ccc(Oc2ccnc3cc(-c4cnn(C)c4)sc23)c(F)c1 [Example 4, 4-ethoxy-N-(3-fluoro-4-(2-(1-methyl-1H-pyrazol-4-yl)thieno[3,2-b]pyridine-7-yloxy)phenyl)-1-(4-fluorophenyl)-2-oxo-1,2-dihydropyridine-3-carboxamide]	–
7.30 to 8.00	CCOc1ccn(-c2ccc(F)cc2)c(=O)c1C(=O)Nc1ccc(Oc2ccnc3cc(-c4ccccn4)sc23)c(F)c1 [Example 5, 4-ethoxy-N-(3-fluoro-4-(2-(pyridin-2-yl)thieno[3,2-b]pyridin-7-yloxy)phenyl)-1-(4-fluorophenyl)-2-oxo-1,2-dihydropyridine-3-carboxamide]	pIC50 (RON enzyme): 8.06
7.30 to 8.00	CCOc1ccn(-c2ccc(F)cc2)c(=O)c1C(=O)Nc1ccc(Oc2ccnc3cc(-c4cccnc4)sc23)c(F)c1 [Example 6, 4-ethoxy-N-(3-fluoro-4-(2-(pyridin-3-yl)thieno[3,2-b]pyridin-7-yloxy)phenyl)-1-(4-fluorophenyl)-2-oxo-1,2-dihydropyridine-3-carboxamide]	–
7.30 to 8.00	COCn1cnc(-c2cc3nccc(Oc4ccc(NC(=O)c5c(OC)ccn(-c6ccccc6)c5=O)cc4F)c3s2)c1 [Example 9, 4-methoxy-N-(3-fluoro-4-(2-(1-(methoxymethyl)-1H-imidazol-4-yl)thieno[3,2-b]pyridin-7-yloxy)phenyl)-1-phenyl-2-oxo-1,2-dihydropyridine-3-carboxamide]	–
